The numbers were not newly measured in patent US20210145763A1, “LOW THC HEMP EXTRACT AND METHOD OF TREATMENT OR PREVENTION OF AN EYE DISEASE” (EYE CO PTY LTD, priority 2018, published 2021), which cites them from elsewhere.

The conditions of data set [1]: in vivo.
The target in data set [2] is T1, mineralocorticoid receptor (Homo sapiens, UniProt P08235).
T1 sequence (P08235 1-984): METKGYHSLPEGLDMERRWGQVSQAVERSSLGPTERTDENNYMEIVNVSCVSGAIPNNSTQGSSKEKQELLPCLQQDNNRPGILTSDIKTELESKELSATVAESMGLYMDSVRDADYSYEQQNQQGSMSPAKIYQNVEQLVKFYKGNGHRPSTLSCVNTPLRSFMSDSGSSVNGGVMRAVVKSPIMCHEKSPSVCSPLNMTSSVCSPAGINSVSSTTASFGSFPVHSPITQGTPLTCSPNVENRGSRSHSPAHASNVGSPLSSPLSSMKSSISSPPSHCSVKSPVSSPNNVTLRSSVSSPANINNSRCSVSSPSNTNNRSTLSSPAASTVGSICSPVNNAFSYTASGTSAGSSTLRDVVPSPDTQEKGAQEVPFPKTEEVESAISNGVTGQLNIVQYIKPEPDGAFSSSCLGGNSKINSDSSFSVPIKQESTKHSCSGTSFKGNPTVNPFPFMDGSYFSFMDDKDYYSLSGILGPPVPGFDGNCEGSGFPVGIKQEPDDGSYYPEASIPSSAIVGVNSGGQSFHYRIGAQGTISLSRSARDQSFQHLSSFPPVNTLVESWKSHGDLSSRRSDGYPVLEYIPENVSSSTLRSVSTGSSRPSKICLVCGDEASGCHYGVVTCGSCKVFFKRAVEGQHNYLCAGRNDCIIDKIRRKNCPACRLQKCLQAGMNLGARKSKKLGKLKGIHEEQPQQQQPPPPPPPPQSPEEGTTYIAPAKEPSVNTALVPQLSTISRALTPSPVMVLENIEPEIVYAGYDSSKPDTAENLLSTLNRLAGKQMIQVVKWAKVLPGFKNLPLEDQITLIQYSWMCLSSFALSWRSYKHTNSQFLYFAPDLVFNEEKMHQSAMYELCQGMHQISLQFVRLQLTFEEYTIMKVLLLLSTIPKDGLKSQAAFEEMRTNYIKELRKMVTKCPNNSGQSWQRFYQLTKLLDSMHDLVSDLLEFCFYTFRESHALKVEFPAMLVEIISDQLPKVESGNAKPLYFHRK
Conditions: relative potency, hydrocortisone = 1.

Another data set addresses T2, glucocorticoid receptor (Homo sapiens, UniProt P04150).
T2 sequence (P04150 1-777): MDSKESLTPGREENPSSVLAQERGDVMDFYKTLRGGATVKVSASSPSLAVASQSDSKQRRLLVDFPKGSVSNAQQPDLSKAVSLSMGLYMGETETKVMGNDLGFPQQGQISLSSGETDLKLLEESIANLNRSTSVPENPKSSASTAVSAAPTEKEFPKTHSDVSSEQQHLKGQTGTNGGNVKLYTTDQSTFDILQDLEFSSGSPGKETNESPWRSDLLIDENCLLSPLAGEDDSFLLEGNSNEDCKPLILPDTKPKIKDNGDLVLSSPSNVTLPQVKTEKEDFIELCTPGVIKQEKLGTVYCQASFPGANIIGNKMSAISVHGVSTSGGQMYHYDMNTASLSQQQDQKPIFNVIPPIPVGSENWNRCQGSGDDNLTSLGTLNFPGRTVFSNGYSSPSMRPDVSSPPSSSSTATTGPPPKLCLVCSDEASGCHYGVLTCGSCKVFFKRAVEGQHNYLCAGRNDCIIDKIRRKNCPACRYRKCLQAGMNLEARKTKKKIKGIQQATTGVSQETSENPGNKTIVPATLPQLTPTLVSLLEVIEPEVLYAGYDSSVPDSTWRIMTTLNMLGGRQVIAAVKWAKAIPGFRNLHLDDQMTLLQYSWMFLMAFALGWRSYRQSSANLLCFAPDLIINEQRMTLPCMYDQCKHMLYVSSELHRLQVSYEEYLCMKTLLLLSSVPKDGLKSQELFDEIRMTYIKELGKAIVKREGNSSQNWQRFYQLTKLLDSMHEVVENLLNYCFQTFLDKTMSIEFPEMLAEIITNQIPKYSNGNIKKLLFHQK
The note with it: relative potency, hydrocortisone = 1.

As for `C[C@H]1C[C@@H]2[C@H]([C@@H](O)C[C@@]3(C)[C@H]2CC[C@]3(O)C(=O)CO)[C@@]2(C)C=CC(=O)C=C12` [Methylprednisolone], the “Duration of action (t1/2 in hours)” value in data set [1] was 18 to 40 h.

Consider `C[C@]12C=CC(=O)C=C1CC[C@H]1[C@@H]3C[C@@H](O)[C@](O)(C(=O)CO)[C@@]3(C)C[C@H](O)[C@@]12F` [Triamcinolone], for which, in data set [2], the MR potency was 0. Further, the “Duration of action (t1/2 in hours)” value in data set [1] is 12 to 36 h. The GR potency at glucocorticoid receptor is reported as 5.

`CC(=O)OCC(=O)[C@@]1(O)CC[C@H]2[C@@H]3CCC4=CC(=O)CC[C@]4(C)[C@@]3(F)[C@@H](O)C[C@@]21C` [Fludrocortisone acetate]: the MR potency in data set [2] was 200.

Consider `C[C@]12CCC(=O)C=C1CC[C@@H]1[C@@H]2C(=O)C[C@@]2(C)[C@H]1CC[C@]2(O)C(=O)CO` [Cortisone], for which the MR potency in data set [2] is 0.8. Further, the GR potency at glucocorticoid receptor is on record as 0.8.

As to `C[C@]12C=CC(=O)C=C1CC[C@@H]1[C@@H]2[C@@H](O)C[C@@]2(C)[C@H]1CC[C@]2(O)C(=O)CO` [Prednisolone], the MR potency in data set [2] is recorded as 0.8. For the same compound, the “Duration of action (t1/2 in hours)” value in data set [1] is 16 to 36 h. At glucocorticoid receptor, the GR potency is listed as 4.

As for `C[C@]12CCC(=O)C=C1CC[C@@H]1[C@@H]2[C@@H](O)C[C@@]2(C)[C@H]1CC[C@]2(O)C(=O)CO` [Hydrocortisone (cortisol), Hydrocortisone], in data set [2], the MR potency was 1. Also, the GR potency at glucocorticoid receptor is 1.

`C[C@]12CCC(=O)C=C1CC[C@@H]1[C@@H]2[C@@H](O)C[C@]2(C=O)[C@@H](C(=O)CO)CC[C@@H]12` [Aldosterone]: the MR potency in data set [2] is recorded as 200-1000. The GR potency at glucocorticoid receptor was 0.3.

Turning to `CC(=O)OCC(=O)[C@H]1CC[C@H]2[C@@H]3CCC4=CC(=O)CC[C@]4(C)[C@H]3CC[C@]12C` [Deoxycorticosterone acetate (DOCA), Deoxycorticosterone acetate], the MR potency in data set [2] was 20. Moreover, the GR potency on glucocorticoid receptor was 0.

Turning to `C[C@]12C=CC(=O)C=C1CC[C@@H]1[C@@H]2C(=O)C[C@@]2(C)[C@H]1CC[C@]2(O)C(=O)CO` [Prednisone], the MR potency in data set [2] is reported as 0.8. Also, the “Duration of action (t1/2 in hours)” value in data set [1] is 16 to 36 h.
